Data set [1] in a line: AUC (0 to 24 hrs) in iv dosed Crl:CD(SD) rat. It is filed as ADME, organism-based. More on the design: time < 24 hr, route intravenous. Particulars: plasma.
Data set [2] is described as follows: Solubility of the compound in water. In kind it is physicochemical.

Our source for the AUC(0-t) and solubility values is ChEMBL document CHEMBL1806349, “Improved performance by replacing iminodiacetic residues with glyceryl residues in symmetrically branched oligoglycerols” (Bioorg Med Chem Lett, 2011).

In brackets after ≈: the same amount, converted by molar mass.

For orientation: AUC(0-t) means exposure summed from dosing to a finite time, without extrapolation to infinity. A word on the solubility: it is how much of the substance goes into solution per volume. High values mean a readily soluble substance, low ones a poorly soluble substance.

On to `CCCCCCCCCCCCCCCCCC(=O)OCC(CO[P+]([O-])(O)OCCNC(=O)CCC(=O)N(CC(=O)N(CC(=O)NC(COC(CO)CO)COC(CO)CO)CC(=O)NC(COC(CO)CO)COC(CO)CO)CC(=O)N(CC(=O)NC(COC(CO)CO)COC(CO)CO)CC(=O)NC(COC(CO)CO)COC(CO)CO)OC(=O)CCCCCCCCCCCCCCCCC` (centres undefined), for which, in data set [1], the AUC(0-t) at 24 h is 53.1 µg·h/mL.
Still for that read-out and setting: in the case of `CCCCCCCCCCCCCCCCCC(=O)OCC(CO[P+]([O-])(O)OCCNC(=O)CCC(=O)N(CC(=O)NC(COC(COC(CO)CO)COC(CO)CO)COC(COC(CO)CO)COC(CO)CO)CC(=O)NC(COC(COC(CO)CO)COC(CO)CO)COC(COC(CO)CO)COC(CO)CO)OC(=O)CCCCCCCCCCCCCCCCC` (centres undefined) it was 95.1 µg·h/mL.
In the case of `O=C(CCC(=O)NC(COC(CO)CO)COC(CO)CO)NCCCCCCCCNC(=O)c1ccccc1`, the solubility in data set [2] was found to be 350 mM (≈ 199 mg/mL).
On the same count and under the same terms, the result for `O=C(CCC(=O)N(CC(=O)NC(CO)CO)CC(=O)NC(CO)CO)NCCCCCCCCNC(=O)c1ccccc1` reads 21 mM (≈ 12.8 mg/mL).
